Experimental data from patent publication US12116343B2, “Inhibitors of APOL1 and methods of using same” (Vertex Pharmaceuticals Incorporated, priority 2020, dated 2024).

Biological target: T1, G1 APOL1 (Homo sapiens, UniProt O14791, I384M/S342G)
T1 construct: expressed in transfected cells
T1 sequence (O14791 28-398 S342G/I384M): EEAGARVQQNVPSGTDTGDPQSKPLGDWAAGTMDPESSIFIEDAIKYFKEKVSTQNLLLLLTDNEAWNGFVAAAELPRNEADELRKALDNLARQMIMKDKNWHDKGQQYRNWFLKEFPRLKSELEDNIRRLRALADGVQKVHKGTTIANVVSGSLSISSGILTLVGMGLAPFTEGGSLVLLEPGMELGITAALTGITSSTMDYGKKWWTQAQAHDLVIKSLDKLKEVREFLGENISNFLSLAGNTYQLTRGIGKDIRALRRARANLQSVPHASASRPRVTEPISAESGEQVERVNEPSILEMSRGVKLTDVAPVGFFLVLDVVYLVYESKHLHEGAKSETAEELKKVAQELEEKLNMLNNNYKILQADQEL
Experiment: Acute APOL1 Thallium Assay with inducible stable clones of HEK 293 cells
Assay type: cell-based
Conditions: HEK 293 T-Rex cells expressing G1 APOL1; read-out: Thallium Assay (IC50)
Method in brief: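 Readout: Tl+-triggered fluorescence, FLIPR, reflecting potassium flux through APOL1 pores after cells take up an AM-ester thallium indicator. Cells: HEK T-Rex stable clone G1 DC3.25, APOL1 G1 induced by tetracycline, seeded 26000 per well.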

Row | Structure (SMILES) | IC50 [nM]
1 | Cc1cnc(NC(=O)[C@H]2C[C@H](c3c(-c4ccc(F)cc4)[nH]c4c(F)cc(F)cc43)C2)o1 [Compound 24] | > 1000
2 | CC[C@H](CO)NC(=O)[C@H]1C[C@H](c2c(-c3ccc(F)cc3)[nH]c3c(F)cc(F)cc32)C1 [Compound 203] | 250 to 1000
3 | O=C([C@H]1C[C@H](c2c(-c3ccc(F)cc3)[nH]c3c(F)cc(F)cc32)C1)N1CCC[C@@H]1CO [Compound 192] | > 1000
4 | O=C([C@H]1C[C@H](c2c(-c3ccc(F)cc3)[nH]c3c(F)cc(F)cc32)C1)N1CC(CO)C1 [Compound 223] | > 1000
5 | C[C@]1(NC(=O)[C@H]2C[C@H](c3c(-c4ccc(F)cc4)[nH]c4c(F)cc(F)cc43)C2)C[C@@H](O)C1 [Compound 211] | 250 to 1000
6 | Cn1ncc(CNC(=O)[C@H]2C[C@H](c3c(-c4ccc(F)cc4)[nH]c4c(F)cc(F)cc43)C2)n1 [Compound 198] | 250 to 1000
7 | O=C(NCCn1cncn1)[C@H]1C[C@H](c2c(-c3ccc(F)cc3)[nH]c3c(F)cc(F)cc32)C1 [Compound 36] | < 250
8 | O=C(N[C@H]1CC[C@@H]1O)[C@H]1C[C@H](c2c(-c3ccc(F)cc3)[nH]c3c(F)cc(F)cc32)C1 [Compound 178] | > 1000
9 | O=C1NCCC1CNC(=O)[C@H]1C[C@H](c2c(-c3ccc(F)cc3)[nH]c3c(F)cc(F)cc32)C1 (stereo partly shown) [Compound 208] | > 1000
10 | Cc1noc(CNC(=O)[C@H]2C[C@H](c3c(-c4ccc(F)cc4)[nH]c4c(F)cc(F)cc43)C2)n1 [Compound 173] | < 250
11 | O=C(NCC1(O)COC1)[C@H]1C[C@H](c2c(-c3ccc(F)cc3)[nH]c3c(F)cc(F)cc32)C1 [Compound 185] | 250 to 1000
12 | CC(C)CC(NC(=O)[C@H]1C[C@H](c2c(-c3ccc(F)cc3)[nH]c3c(F)cc(F)cc32)C1)C(N)=O (stereo partly shown) [Compound 30] | > 1000
13 | Cc1ccn(CCNC(=O)[C@H]2C[C@H](c3c(-c4ccc(F)cc4)[nH]c4c(F)cc(F)cc43)C2)n1 [Compound 35] | > 1000
14 | CC1(CO)CCN1C(=O)[C@H]1C[C@H](c2c(-c3ccc(F)cc3)[nH]c3c(F)cc(F)cc32)C1 (mixture of isomers) [Compound 218] | 250 to 1000
15 | COC[C@@H]1CCN1C(=O)[C@H]1C[C@H](c2c(-c3ccc(F)cc3)[nH]c3c(F)cc(F)cc32)C1 [Compound 222] | 250 to 1000
16 | O=C([C@H]1C[C@H](c2c(-c3ccc(F)cc3)[nH]c3c(F)cc(F)cc32)C1)N1CC[C@H]1CO [Compound 206] | 250 to 1000
17 | NC(=O)[C@@H](CO)NC(=O)[C@H]1C[C@H](c2c(-c3ccc(F)cc3)[nH]c3c(F)cc(F)cc32)C1 [Compound 221] | < 250
18 | Cn1ccc(NC(=O)[C@H]2C[C@H](c3c(-c4ccc(F)cc4)[nH]c4c(F)cc(F)cc43)C2)n1 [Compound 22] | > 1000
19 | N#CC(CO)NC(=O)[C@H]1C[C@H](c2c(-c3ccc(F)cc3)[nH]c3c(F)cc(F)cc32)C1 (stereo partly shown) [Compound 201] | < 250
20 | O=C(NC[C@@H](O)CO)[C@H]1C[C@H](c2c(-c3ccc(F)cc3)[nH]c3c(F)cc(F)cc32)C1 [Compound 224] | > 1000
21 | O=C(NC1(CO)CC(F)(F)C1)[C@H]1C[C@H](c2c(-c3ccc(F)cc3)[nH]c3c(F)cc(F)cc32)C1 [Compound 202] | 250 to 1000
22 | COCCNC(=O)[C@H]1C[C@H](c2c(-c3ccc(F)cc3)[nH]c3c(F)cc(F)cc32)C1 [Compound 12] | > 1000
23 | C[C@H](O)[C@@H](CO)NC(=O)[C@H]1C[C@H](c2c(-c3ccc(F)cc3)[nH]c3c(F)cc(F)cc32)C1 [Compound 16] | < 250
24 | NC(=O)C1CC(c2c(-c3ccc(F)cc3)[nH]c3c(F)cc(F)cc23)C1 (stereo not shown) [Compound 278, 3-[5,7-difluoro-2-(4-fluorophenyl)-1H-indol-3-yl]cyclobutanecarboxamide] | 250 to 1000
25 | O=C(NCCn1cccc1)[C@H]1C[C@H](c2c(-c3ccc(F)cc3)[nH]c3c(F)cc(F)cc32)C1 [Compound 34] | > 1000

Other lines, results leading:

Row | IC50 [nM] | Structure (SMILES)
26 | 250 to 1000 | O=C(NCc1nnco1)[C@H]1C[C@H](c2c(-c3ccc(F)cc3)[nH]c3c(F)cc(F)cc32)C1 [Compound 171]
27 | < 250 | NC(=O)C(CO)NC(=O)[C@H]1C[C@H](c2c(-c3ccc(F)cc3)[nH]c3c(F)cc(F)cc32)C1 (stereo partly shown) [Compound 32]
28 | 250 to 1000 | O=C(NCC(F)(F)F)[C@H]1C[C@H](c2c(-c3ccc(F)cc3)[nH]c3c(F)cc(F)cc32)C1 [Compound 33]
29 | < 250 | O=C([C@H]1C[C@H](c2c(-c3ccc(F)cc3)[nH]c3c(F)cc(F)cc32)C1)N1CC[C@@H]1CO [Compound 195]
30 | 250 to 1000 | O=C(N[C@H]1COC[C@@H]1O)[C@H]1C[C@H](c2c(-c3ccc(F)cc3)[nH]c3c(F)cc(F)cc32)C1 [Compound 184]
31 | < 250 | CC(CO)(CO)NC(=O)[C@H]1C[C@H](c2c(-c3ccc(F)cc3)[nH]c3c(F)cc(F)cc32)C1 [Compound 186]
32 | < 250 | O=C(NC1(CO)CCOC1)[C@H]1C[C@H](c2c(-c3ccc(F)cc3)[nH]c3c(F)cc(F)cc32)C1 (stereo partly shown) [Compound 194]
33 | 250 to 1000 | O=C(NCC1(O)CC1)[C@H]1C[C@H](c2c(-c3ccc(F)cc3)[nH]c3c(F)cc(F)cc32)C1 [Compound 183]
34 | > 1000 | CC(C)C(CO)NC(=O)[C@H]1C[C@H](c2c(-c3ccc(F)cc3)[nH]c3c(F)cc(F)cc32)C1 (stereo partly shown) [Compound 29]
35 | > 1000 | O=C(NCCn1cnnc1)[C@H]1C[C@H](c2c(-c3ccc(F)cc3)[nH]c3c(F)cc(F)cc32)C1 [Compound 39]
36 | 250 to 1000 | O=C(NC(CO)C1CC1)[C@H]1C[C@H](c2c(-c3ccc(F)cc3)[nH]c3c(F)cc(F)cc32)C1 (stereo partly shown) [Compound 199]
37 | > 1000 | Cn1cncc1CNC(=O)[C@H]1C[C@H](c2c(-c3ccc(F)cc3)[nH]c3c(F)cc(F)cc32)C1 [Compound 174]
38 | > 1000 | Cc1cc(CNC(=O)[C@H]2C[C@H](c3c(-c4ccc(F)cc4)[nH]c4c(F)cc(F)cc43)C2)on1 [Compound 37]
39 | > 1000 | O=C(NC[C@H]1CC[C@@H](CO)O1)[C@H]1C[C@H](c2c(-c3ccc(F)cc3)[nH]c3c(F)cc(F)cc32)C1 [Compound 189]
40 | 250 to 1000 | C#CC(CO)NC(=O)[C@H]1C[C@H](c2c(-c3ccc(F)cc3)[nH]c3c(F)cc(F)cc32)C1 (stereo partly shown) [Compound 196]
41 | > 1000 | O=C(NC[C@H](O)CO)[C@H]1C[C@H](c2c(-c3ccc(F)cc3)[nH]c3c(F)cc(F)cc32)C1 [Compound 225]
42 | 250 to 1000 | O=C(N[C@H]1CC[C@H]1O)[C@H]1C[C@H](c2c(-c3ccc(F)cc3)[nH]c3c(F)cc(F)cc32)C1 [Compound 181]
43 | > 1000 | O=C(N[C@H]1C[C@H](O)C1)[C@H]1C[C@H](c2c(-c3ccc(F)cc3)[nH]c3c(F)cc(F)cc32)C1 [Compound 20]

Row | IC50 [nM] | Structure (SMILES)
44 | > 1000 | CC(O)(CO)CNC(=O)[C@H]1C[C@H](c2c(-c3ccc(F)cc3)[nH]c3c(F)cc(F)cc32)C1 (mixture of isomers) [Compound 216]
45 | 250 to 1000 | CC(CO)N(C)C(=O)[C@H]1C[C@H](c2c(-c3ccc(F)cc3)[nH]c3c(F)cc(F)cc32)C1 (mixture of isomers) [Compound 193]
46 | 250 to 1000 | Cc1cc(NC(=O)[C@H]2C[C@H](c3c(-c4ccc(F)cc4)[nH]c4c(F)cc(F)cc43)C2)no1 [Compound 17]
47 | > 1000 | O=C([C@H]1C[C@H](c2c(-c3ccc(F)cc3)[nH]c3c(F)cc(F)cc32)C1)N1CCC[C@H]1CO [Compound 210]
48 | 250 to 1000 | Cc1nnc(CNC(=O)[C@H]2C[C@H](c3c(-c4ccc(F)cc4)[nH]c4c(F)cc(F)cc43)C2)o1 [Compound 172]
49 | 250 to 1000 | O=C(NCC(O)CO)[C@H]1C[C@H](c2c(-c3ccc(F)cc3)[nH]c3c(F)cc(F)cc32)C1 (stereo partly shown) [Compound 14]
50 | > 1000 | CC(C)(O)C(O)CNC(=O)[C@H]1C[C@H](c2c(-c3ccc(F)cc3)[nH]c3c(F)cc(F)cc32)C1 (stereo partly shown) [Compound 215]
51 | < 250 | C[C@@H](CO)NC(=O)[C@H]1C[C@H](c2c(-c3ccc(F)cc3)[nH]c3c(F)cc(F)cc32)C1 [Compound 200]
52 | > 1000 | Cn1cc(CNC(=O)[C@H]2C[C@H](c3c(-c4ccc(F)cc4)[nH]c4c(F)cc(F)cc43)C2)cn1 [Compound 38]
53 | 250 to 1000 | O=C1NCCCC1NC(=O)[C@H]1C[C@H](c2c(-c3ccc(F)cc3)[nH]c3c(F)cc(F)cc32)C1 (stereo partly shown) [Compound 23]
54 | > 1000 | O=C(N[C@@H]1CCC[C@@H]1O)[C@H]1C[C@H](c2c(-c3ccc(F)cc3)[nH]c3c(F)cc(F)cc32)C1 [Compound 179]
55 | > 1000 | O=C1N[C@H](CO)C[C@@H]1NC(=O)[C@H]1C[C@H](c2c(-c3ccc(F)cc3)[nH]c3c(F)cc(F)cc32)C1 [Compound 209]
56 | 250 to 1000 | CC1(NC(=O)[C@H]2C[C@H](c3c(-c4ccc(F)cc4)[nH]c4c(F)cc(F)cc43)C2)CCNC1=O (mixture of isomers) [Compound 197]
57 | > 1000 | O=C(N[C@@H]1CCC[C@H]1O)[C@H]1C[C@H](c2c(-c3ccc(F)cc3)[nH]c3c(F)cc(F)cc32)C1 [Compound 182]
58 | > 1000 | O=C1CN(C(=O)[C@H]2C[C@H](c3c(-c4ccc(F)cc4)[nH]c4c(F)cc(F)cc43)C2)CCN1 [Compound 228]
59 | 250 to 1000 | O=C(N[C@@H]1CCOC1)[C@H]1C[C@H](c2c(-c3ccc(F)cc3)[nH]c3c(F)cc(F)cc32)C1 [Compound 19]
60 | 250 to 1000 | O=C1CCC(NC(=O)[C@H]2C[C@H](c3c(-c4ccc(F)cc4)[nH]c4c(F)cc(F)cc43)C2)C(=O)N1 (stereo partly shown) [Compound 26]
61 | 250 to 1000 | C[C@@H](O)CNC(=O)[C@H]1C[C@H](c2c(-c3ccc(F)cc3)[nH]c3c(F)cc(F)cc32)C1 [Compound 175]
